# Laboratory results taken from patent publication EP4227307A1 (Genzyme Corporation, priority 2022, dated 2023).
# Structures can show the parent of a compound that is named as a salt.
# Molecular target: T1, human recombinant 6His-Nterm SHP2 full-length (Thr2-Arg593) (Homo sapiens, UniProt Q06124)
# T1 construct: 6His-Nterm SHP2 full-length (Thr2-Arg593, R&D system); 6His (N); purchased R&D system
# T1 sequence (Q06124 2-593): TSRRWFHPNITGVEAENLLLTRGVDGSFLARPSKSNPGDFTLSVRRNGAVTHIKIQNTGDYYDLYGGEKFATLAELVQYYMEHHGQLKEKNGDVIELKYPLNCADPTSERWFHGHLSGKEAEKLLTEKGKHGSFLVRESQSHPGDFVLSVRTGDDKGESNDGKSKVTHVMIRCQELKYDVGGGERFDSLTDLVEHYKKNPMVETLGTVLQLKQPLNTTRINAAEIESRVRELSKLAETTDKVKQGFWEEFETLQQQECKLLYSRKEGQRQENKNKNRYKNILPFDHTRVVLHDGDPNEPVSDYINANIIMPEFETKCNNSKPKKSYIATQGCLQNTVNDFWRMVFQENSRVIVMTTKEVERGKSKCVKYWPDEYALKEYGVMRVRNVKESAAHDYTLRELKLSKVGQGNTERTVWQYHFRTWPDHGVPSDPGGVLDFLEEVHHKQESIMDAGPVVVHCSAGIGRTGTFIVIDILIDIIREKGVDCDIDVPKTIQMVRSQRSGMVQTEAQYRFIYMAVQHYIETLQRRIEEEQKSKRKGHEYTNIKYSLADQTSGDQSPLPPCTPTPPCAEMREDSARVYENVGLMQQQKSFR
# Experiment: SHP2 Phosphatase Assay (DiFMUP fluorescence)
# Format: biochemical
# Conditions: SHP2 0.2 nM pre-incubated with 100 nM bi-phosphorylated activating peptide; compound 1000-0.05 nM, 30 min pre-incubation; DiFMUP 20 µM, 45 min, room temperature; 10-concentration dose-response
# In short: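 SHP2 (0.2 nM) preactivated ≥10 min with 100 nM bis-phosphorylated peptide, then 30 min with compound (10 concentrations, 1000–0.05 nM) at room temperature, pH 7.2 HEPES buffer with DTT. DiFMUP (20 µM, added solution) reacted 45 min, pervanadate-stopped; fluorescence 350/450 nm. IC50 by 4-parameter logistic fit.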
row,IC50,SMILES
1,0.003 µM,"Cc1nc(N2CCC3(CC2)Cc2ncccc2[C@H]3N)c2ccnn2c1-c1ccc(F)c(F)c1 [Compound 201, (5S)-1'-[7-(3,4-difluorophenyl)-6-methyl-pyrazolo[1,5-a]pyrazin-4-yl]spiro[5,7-dihydrocyclopenta[b]pyridine-6,4'-piperidine]-5-amine]"
2,0.005 µM,"Cc1nc(N2CCC3(CC2)Cc2ncccc2[C@H]3N)c2ccnn2c1-c1ccccc1F [Compound 51, (5S)-1'-[7-(2-fluorophenyl)-6-methyl-pyrazolo[1,5-a]pyrazin-4-yl]spiro[5,7-dihydrocyclopenta[b]pyridine-6,4'-piperidine]-5-amine]"
3,> 1 µM,"Cc1nc(N2CCC3(CC2)Cc2ncccc2[C@H]3N)c2c(C(F)F)cnn2c1-c1ccccc1F [Compound 147, (5S)-1'-[3-(difluoromethyl)-7-(2-fluorophenyl)-6-methyl-pyrazolo[1,5-a]pyrazin-4-yl]spiro[5,7-dihydrocyclopenta[b]pyridine-6,4'-piperidine]-5-amine]"
4,0.055 µM,"CC(=O)c1ccc(F)c(-c2c(C)nc(N3CCC4(CC3)Cc3ncccc3[C@H]4N)c3ccnn23)c1 [Compound 204, 1-[4-fluoro-3-[6-methyl-4-[(5S)-5-aminospiro [5,7-dihydrocyclopenta[b]pyridine-6,4'-piperidine]-1'-yl]pyrazolo[1,5-a]pyrazin-7-yl]phenyl]ethanone]"
5,0.004 µM,"Cc1nc(N2CCC3(CC2)Cc2ncccc2[C@H]3N)c2ccnn2c1-c1cc(F)ccc1F [Compound 195, (5S)-1'-[7-(2,5-difluorophenyl)-6-methyl-pyrazolo[1,5-a]pyrazin-4-yl]spiro[5,7-dihydrocyclopenta[b]pyridine-6,4'-piperidine]-5-amine]"
6,0.012 µM,"Cc1nc(N2CCC3(CC2)Cc2ncccc2[C@H]3N)c2ccnn2c1-c1ccc(C#N)cc1F [Compound 206, 3-fluoro-4-[6-methyl-4-[(5S)-5-aminospiro[5,7-dihydrocyclopenta[b]pyridine-6,4'-piperidine]-1'-yl]pyrazolo[1,5-a]pyrazin-7-yl]benzonitrile]"
7,0.014 µM,"Cc1nc(N2CCC3(CC2)Cc2ncccc2[C@H]3N)c2ccnn2c1-c1cccc2c1OCC2 [Compound 178, (5S)-1'-[7-(2,3-dihydrobenzofuran-7-yl)-6-methyl-pyrazolo[1,5-a]pyrazin-4-yl]spiro[5,7-dihydrocyclopenta[b]pyridine-6,4'-piperidine]-5-amine]"
8,0.023 µM,"Cc1nc(N2CCC3(CC2)Cc2ncccc2[C@H]3N)c2ccnn2c1-c1cccc2c1ccn2C [Compound 182, (5S)-1'-[6-methyl-7-(1-methylindol-4-yl)pyrazolo[1,5-a]pyrazin-4-yl]spiro[5,7-dihydrocyclopenta[b]pyridine-6,4'-piperidine]-5-amine]"
9,0.25 µM,"Cc1nc(N2CCC3(CC2)Cc2ncccc2[C@H]3N)c2ccnn2c1-c1cc(C(F)(F)F)ccc1F [Compound 187, (5S)-1'-[7-[2-fluoro-5-(trifluoromethyl)phenyl] -6-methyl-pyrazolo[1,5-a]pyrazin-4-yl]spiro[5,7-dihydrocyclopenta[b]pyridine-6,4'-piperidine]-5-amine]"

# The next lines start with the compound.
row,SMILES,IC50
1,"Cc1nc(N2CCC3(CC2)Cc2ncccc2[C@H]3N)c2ccnn2c1-c1ccc(N(C)C)nc1 [Compound 176, (5S)-1'-[7-[6-(dimethylamino)-3-pyridyl]-6-methyl-pyrazolo [1 ,5-a]pyrazin-4-yl]spiro[5,7-dihydrocyclopenta[b]pyridine-6,4'-piperidine]-5-amine]",0.006 µM
2,"Cc1nc(N2CCC3(CC2)Cc2nc(C(F)F)ccc2[C@H]3N)c2ccnn2c1-c1cnn(C)c1C [Compound 61, (5S)-2-(difluoromethyl)-1'-[7-(1,5-dimethylpyrazol-4-yl)-6-methyl-pyrazolo[1,5-a]pyrazin-4-yl]spiro [5,7-dihydrocyclopenta[b]pyridine-6,4'-piperidine]-5-amine]",0.211 µM
3,"COc1ccc2c(c1)[C@@H](N)C1(CCN(c3nc(C)c(-c4ccncc4Cl)n4nccc34)CC1)C2 [Compound 119, hydrochloride]",0.004 µM
4,"COc1ccc2c(n1)[C@@H](N)C1(CCN(c3nc(C)c(-c4cccc(F)c4Cl)n4nccc34)CC1)C2 [Compound 215, (7S)-1'-[7-(2-chloro-3-fluoro-phenyl)-6-methyl-pyrazolo[1,5-a]pyrazin-4-yl]-2-methoxy-spiro[5,7-dihydrocyclopenta[b]pyridine-6,4'-piperidine]-7-amine]",0.023 µM
5,"Cc1nc(N2CCC3(CC2)Cc2c(F)cc(F)cc2[C@H]3N)c2ccnn2c1-c1cnn(C)c1C [Compound 102, (1S)-1'-[7-(1,5-dimethylpyrazol-4-yl)-6-methyl-pyrazolo[1,5-a]pyrazin-4-yl]-4,6-difluoro-spiro[indane-2,4'-piperidine]-1-amine hydrochloride]",0.017 µM
6,"CCn1cc(-c2c(C)nc(N3CCC4(CC3)Cc3ncccc3[C@H]4N)c3ccnn23)cn1 [Compound 48, (5S)-1'-[7-(1-ethylpyrazol-4-yl)-6-methyl-pyrazolo[1,5-a]pyrazin-4-yl]spiro[5,7-dihydrocyclopenta[b]pyridine-6,4'-piperidine]-5-amine]",0.017 µM
7,"Cc1cc2c(cn1)CC1(CCN(c3nc(C)c(-c4ccnc(C)c4F)n4nccc34)CC1)[C@@H]2N [Compound 116, (5S)-1'-[7-(3-fluoro-2-methyl-4-pyridyl)-6-methyl-pyrazolo[1,5-a]pyrazin-4-yl]-3-methyl-spiro[5,7-dihydrocyclopenta[c]pyridine-6,4'-piperidine]-5-amine]",0.008 µM
8,"Cc1nc(N2CCC3(CC2)Cc2ncccc2[C@H]3N)c2ccnn2c1-c1cscn1 [Compound 160, (5S)-1'-(6-methyl-7-thiazol-4-yl-pyrazolo[1,5-a]pyrazin-4-yl)spiro[5,7-dihydrocyclopenta[b]pyridine-6,4'-piperidine]-5-amine hydrochloride]",0.063 µM
9,"Cc1nccc(-c2c(C)nc(N3CCC4(CC3)Cc3ncsc3[C@H]4N)c3ccnn23)c1Cl [Compound 73, (6S)-1'-[7-(3-chloro-2-methyl-4-pyridyl)-6-methyl-pyrazolo[1,5-a]pyrazin-4-yl]spiro[4,6-dihydrocyclopenta[d]thiazole-5,4'-piperidine]-6-amine hydrochloride]",0.005 µM
10,"COc1cccc(-c2c(C)nc(N3CCC4(CC3)Cc3ncccc3[C@H]4N)c3ccnn23)c1Cl [Compound 3, (5S)-1'-(7-(2-chloro-3-methoxyphenyl)-6-methylpyrazolo[1,5-a]pyrazin-4-yl)-5,7-dihydrospiro [cyclopenta[b]pyridine-6,4'-piperidin] -5-amine hydrochloride]",0.003 µM
11,"Cc1nc(N2CCC3(CC2)Cc2ncccc2[C@H]3N)c2ccnn2c1-c1ccnc(CO)c1Cl [Compound 207, [4-[4-[(5S)-5-aminospiro[5,7-dihydrocyclopenta[b]pyridine-6,4'-pipetidine]-1'-yl]-6-methyl-pyrazolo[1,5-a]pyrazin-7-yl]-3-chloro-2-pyridyl]methanol]",0.016 µM
12,"Cc1nc(N2CCC3(CC2)Cc2ncccc2[C@H]3N)c2ccnn2c1-c1ccc2c(c1)CCO2 [Compound 188, (5S)-1'-[7-(2,3-dihydrobenzofuran-5-yl)-6-methyl-pyrazolo[1,5-a]pyrazin-4-yl]spiro[5,7-dihydrocyclopenta[b]pyridine-6,4'-piperidine]-5-amine]",0.007 µM
13,"Cc1nccc(Sc2c(C)nc(N3CCC4(CC3)Cc3ncccc3[C@H]4N)c3ccnn23)c1Cl [Compound 231, (S)-1'-(7-((3-chloro-2-methylpyridin-4-yl)thio)-6-methylpyrazolo[1,5-a]pyrazin-4-yl)-5,7-dihydrospiro[cyclopenta[b]pyridine-6,4'-piperidin]-5-amine]",0.008 µM
14,"Cc1nc(N2CCC3(CC2)Cc2cc(F)ccc2[C@H]3N)c2ccnn2c1-c1cnn(C)c1C [Compound 101, (1S)-1'-[7-(1,5-dimethylpyrazol-4-yl)-6-methyl-pyrazolo[1,5-a]pyrazin-4-yl]-5-fluoro-spiro[indane-2,4'-piperidine]-1-amine hydrochloride]",0.015 µM
15,"Cc1nc(N2CCC3(CC2)Cc2ncccc2[C@H]3N)c2ccnn2c1-c1ccc2ncccc2c1F [Compound 30, (5S)-1'-[7-(5-fluoro-6-quinolyl)-6-methyl-pyrazolo [1 ,5-a]pyrazin-4-yl]spiro[5,7-dihydrocyclopenta[b]pyridine-6,4'-piperidine] -5-amine formate]",0.017 µM
16,"Cc1nc(N2CCC3(CC2)Cc2ncccc2[C@H]3N)c2ccnn2c1-c1ccnn1C [Compound 29, (5S)-1'-[6-methyl-7-(2-methylpyrazol-3-yl)pyrazolo[1,5-a]pyrazin-4-yl]spiro[5,7-dihydrocyclopenta[b]pyridine-6,4'-piperidine]-5-amine hydrochloride]",0.038 µM
